US20050215567A1, “1-[2H-1-benzopyran-2-one-8-yl]-piperazine derivatives for the treatment of pain” (SOLVAY PHARMACEUTICALS B.V., priority 2004, published 2005)
“Also recorded” adds a separate entry of the source.

Experiments:
hot plate latency = experiment: Hot plate test (acute pain model); type: in vivo, mice; conditions: for Latency of animal to remove itself from the hotplate seconds ± STDerr: 30 minutes after administration; for analgesic effect in the hot plate test (in words): i.p., morphine 7.5 mg/kg, compound 1 0.1 mg/kg, sumatriptan 10 mg/kg
Experimental: Hot plate test in mouse or rat according to Eddy and Leimbach (J. Pharmacol. Exp. Ther. 1953, 107: 385-393): Mice or rats are placed onto a hot metal plate maintained at 54° C. for mice or 52° C. for rats surrounded by a Plexiglas cylinder (Height: 13 cm; Diameter: 19 cm). The latency to the first foot-lick is measured (maximum: 30 seconds).
Compound 1 and other compounds were tested on the hotplate 30 minutes after intraperitoneal administration. A description of the method is given above.

[1] = tested on: acetic acid induced writhing; experiment: Acetic acid writhing test (acute pain model); type: in vivo, mice; conditions: Mus musculus, po
Experimental: Phenylbenzoquinone and acetic writhing tests in mice follow the methods described by Hendershot et al (J. Pharmacol. Exp. Ther. 1959, 125: 237-240): Mice are injected with phenylbenzoquinone (PBQ) (1.25 mg/kg ip.) or acetic acid (0.5% ip.). This treatment induces a recognizable writhing response in control animals. The number of writhes is counted for 10 minutes beginning 5 minutes after injection of PBQ or acetic acid.

[2] = Sedative effects after oral dosing; type: in vivo; conditions: dosages of up to 100 mg/kg p.o.

| SMILES | Latency of animal to remove itself from the hotplate seconds ± STDerr (hot plate latency; 0.1 mg/kg i.p.) [s] | ED50 (hot plate latency; Mus musculus, po, read-out: ED50 hot plate test) [mg/kg] | ED50 [1] [mg/kg] | sedative effects [2] | Latency of animal to remove itself from the hotplate seconds ± STDerr (hot plate latency; 7.5 mg/kg i.p.) [s] | analgesic effect in the hot plate test (in words) (hot plate latency) | Latency of animal to remove itself from the hotplate seconds ± STDerr (hot plate latency; 10 mg/kg i.p.) [s] | analgesic effect in the hot plate test (in words) (hot plate latency; listed as Sumatriptan) | antagonism of the analgesic effect of compound 1 in the hot plate test (hot plate latency; sumatriptan 10 mg/kg i.p. with compound 1 0.1 mg/kg i.p., P-value=0.0001, Wilcoxon test) |
| --- | --- | --- | --- | --- | --- | --- | --- | --- | --- |
| Nc1cc2cccc(N3CCNCC3)c2oc1=O [Compound 1, 3-amino-8-(1-piperazinyl)-2H-1-benzopyran-2-one] | 8.4 ± 0.5 | 3.2 | 1.82 | devoid of sedative effects |  |  |  |  |  |
| CN1CC[C@]23c4c5ccc(O)c4O[C@H]2[C@@H](O)C=C[C@H]3[C@H]1C5 [morphine] |  |  |  |  | 7.8 ± 0.3 | nearly doubles the latency |  |  |  |
| CNS(=O)(=O)Cc1ccc2[nH]cc(CCN(C)C)c2c1 [sumatriptan] |  |  |  |  |  | inactive | 3.9 ± 0.3 | completely inactive | nearly completely antagonizes; also recorded: nearly completely blocked |
